Reference: patent US4816482A, “Radioprotective agents having an amino-thioalkyl structure” (priority 1983, dated 1989)
Entries after “also recorded” stand apart in the source; their conditions may differ. Where a name gives a salt, the structure may show the parent alone. Read-outs that look alike come from different tables or passages of the source.

Key:
[1] = Acute toxicity (LD50), i.p.; format: in vivo, mice; conditions: mouse, in vivo, ip
mice [2] = test: Acute toxicity (LD50), i.p.; format: in vivo; conditions: for toxicity (in words): mouse, in vivo
mice [3] = test: Radioprotective activity: survival at the 30th day after irradiation; format: in vivo; conditions: for radioprotective activity (in words): mouse, in vivo; for responders at 600 mg/kg: 600 mg/kg i.p.
Protocol: This study of radioprotective activity was carried out according to a technique described by M. Fatome at al., Eur. J. Med. Chem. 1977, 12, (1), 93. […] This dose is equal to 950 Rad.
More complete studies are recorded in Table II.

mice [4] = conditions: cited from earlier work
normal tissues / tumours [5] = test: Selectivity of protection: normal tissues versus tumours; conditions: EMT6 and HT19 tumours, except if necrotised
EMT 6 tumours = test: Gain factor (bone marrow FRD/tumour FRD) on EMT 6 tumours; format: in vivo; conditions: 5×10^-1 survival level
bone marrow = test: FRD on bone marrow; conditions: in vivo
[6] = cited from earlier work
Chemical stability = format: physicochemical; conditions: I 102 compared with WR 2721
normal tissues / tumours [7] = conditions: literature knowledge; cited from earlier work

CC(=O)OC(CNC(=O)CN)CSC(C)=O (stereo not drawn) [Example 32, TRIFLUOROACETATE]
LD50 [1]: > 1500 mg/kg
LD50 ([1]; Table I): 1500 mg/kg
LD50 ([1]; Table II): 1500 mg/kg
toxicity (in words) (mice [2]): low toxicity
survival at 30 days (mice [3]; 250 mg/kg, 900 Rad): 70%
survival at 30 days (mice [3]; 1,000 mg/kg, 1,100 Rad): 80%
responders at 1000 mg/kg (mice [3]; Mus musculus, light or radiation study, ip, 720 h, Table I, 1,000 mg/kg i.p., 15' before irradiation at 900 or 950 Rad, read-out: % survival at the 30th day): 100%
responders at 1000 mg/kg (mice [3]; Mus musculus, light or radiation study, ip, 720 h, Table II, 1,000 mg/kg i.p., 15' before irradiation, 900 Rad, read-out: % survival at 30 days): 100%
responders at 250 mg/kg (mice [3]; Mus musculus, light or radiation study, ip, 720 h, Table II, dose not printed (250 mg/kg in text), 15' before irradiation, 900 Rad, read-out: % survival at 30 days): 70%
responders at 1000 mg/kg (mice [3]; Mus musculus, light or radiation study, ip, 720 h, Table II, dose not printed (1,000 mg/kg in text), 15' before irradiation, 1,100 Rad, read-out: % survival at 30 days): 80%

CC(=O)NCCSC(=O)CN.O=C(O)C(F)(F)F [Example 34]
LD50 ([1]; Table II): 1000 mg/kg
LD50 (mice [2]; Table I): 1,000 mg/kg
radioprotective activity (in words) (mice [3]): slight radioprotective action

C[C@H](N)C(=O)NCCSSCCNC(=O)[C@H](C)N.O=C(O)C(F)(F)F.O=C(O)C(F)(F)F [Example 45, N,N'-[…] DI(TRIFLUOROACETATE)]
LD50 ([1]; Table I): 1200 mg/kg
LD50 ([1]; Table II): 1200 mg/kg
toxicity (in words) (mice [2]): low toxicity
responders at 600 mg/kg (mice [3]; Mus musculus, ip, 720 h, read-out: % survival at 30 days, Table II, 4th entry, time and Rad not given): 50%
responders at 150 mg/kg (mice [3]; Mus musculus, light or radiation study, ip, 720 h, read-out: % survival at 30 days, Table II, 150 mg/kg i.p., 15' before irradiation, 900 Rad): 20%
responders at 600 mg/kg (mice [3]; Mus musculus, light or radiation study, ip, 720 h, read-out: % survival at 30 days, Table II, 2 (hours, cut off) before irradiation, 900 Rad): 50%
responders at 600 mg/kg (mice [3]; Mus musculus, light or radiation study, ip, 720 h, read-out: % survival at 30 days, Table II, 15' before irradiation, 900 Rad): 100%
responders at 600 mg/kg (mice [3]; Mus musculus, light or radiation study, ip, 720 h, read-out: % survival at the 30th day, Table I, 15' before irradiation at 900 or 950 Rad): 100%
radioprotective activity (in words) (mice [3]): good radioprotection

CC(C)(N)CSS(=O)(=O)O [H2 N--(C(CH3)2 --CH2 --S--SO3 H]
protection (in words) (mice [4]; 600 mg/kg, J. R. Piper et al., J. Med. Chem. 1966): good protection

CC(=O)SCCNC(=O)CN [I 102, N-glycyl-S-acetylcysteamine]
protection of tumours (in words) (normal tissues / tumours [5]): does not protect tumours (or protects them to only a small extent)
LD50 [1]: > 1500 mg/kg
gain factor (bone marrow FRD/tumour FRD) (EMT 6 tumours): 1.2
FRD on bone marrow (bone marrow): 1.4

NCCCNCCSP(=O)(O)O [WR 2721]
LD50 (mice [2]): 950 mg/kg
gain factor (bone marrow FRD/tumour FRD) (EMT 6 tumours): 1.2
solubility in water (in words) [6]: high solubility in water
chemical stability (in words) (Chemical stability): unstable; also recorded: not very stable
FRD on bone marrow (bone marrow): 2.7
selectivity of protection (in words) (normal tissues / tumours [7]): protecting normal tissues against radiation-induced damage, while allowing solid tumors to bear alone the effect of the radiation; also recorded: concentrates selectively in healthy cells and not in cancer cells; also recorded: concentrating selectively in normal tissues (and not in cancer cells); also recorded: selectively protects normal tissues against radiation-induced damage

NCC(O)CSP(=O)(O)O (stereo not drawn) [WR 77913]
survival at 30 days (mice [4]; mice, 400 mg/kg (i.p.) 30 minutes before irradiation of 950, 970 Rad): 100%

NCCS [cysteamine, β-mercaptoethylamine]
selectivity of protection (in words) (normal tissues / tumours [7]): non-selective protection of the cells

N[C@@H](CS)C(=O)O [cysteine]
selectivity of protection (in words) (normal tissues / tumours [7]): non-selective protection of the cells
